Reference: patent publication US8686043B2, “Heterocyclic sulfonamides, uses and pharmaceutical compositions thereof” (Pfizer Inc., priority 2009, dated 2014)
pEC50: −log10 of the molar value.

tested on: AMPA receptors; test: AMPA ES Cell FLIPR Screen (AMPA Potentiator Assay); assay type: cell-based, murine; settings: ES cell-derived neurons, FLIPR (Fluo-4), 32 μM AMPA challenge; values marked * are the geometric mean of 2-5 EC50 determinations
Description: Growth and Maintenance of ES Cells
Murine ES cell line E14, with a targeted mutation in the Sox1 gene and a neuroectodermal marker that offers G418 resistance when the Sox1 gene is expressed (Stem Cell Sciences, West Mains Road, Edinburgh, Scotland EH9 3JQ) may be used in all experiments. ES cells may be maintained undifferentiated as previously described (Methods For The Isolation And Maintenance Of Murine Embryonic Stem Cells; Roach-M-L, McNeish-J-D., Methods in Molecular Biology, 185, 1-16 (2002)). Briefly, ES cells may be grown in stem cell culture media comprising a base medium of Knockout™ D-MEM (Invitrogen 5791 Van Allen Way, Carlsbad, Calif. USA 92008), supplemented with 15% ES qualified Fetal Bovine Serum (FBS) (Invitrogen), 0.2 mM L-Glutamine (Invitrogen), 0.1 mM MEM non-essential amino acids (Invitrogen), 30 μg/ml Gentamicin […] (Invitrogen), 1000 U/ml ESGRO™ (CHEMICON International, Inc., 28820 Single Oak Drive, Temecula, Calif. 92590) and 0.1 mM 2-mercaptoethanol (Sigma, 3050 Spruce St., St. Louis, Mo. 63103). ES cells may then be plated on gelatin-coated dishes (BD Biosciences, 2350 Qume Drive, San Jose, Calif. 95131), wherein the media is changed daily and the cells dissociated with 0.05% Trypsin EDTA (Invitrogen) every other day.
Neural In Vitro Differentiation of ES Cells
Embryoid Body Formation: Prior to embryoid body (EB) formation the ES cells may be weaned from FBS onto Knockout Serum Replacement™ (KSR) (Invitrogen). To form EBs, ES cells may be dissociated into a single cell suspension, then 3×10^6 cells plated in bacteriology dishes (Nunc 4014) and grown as a suspension culture in NeuroEB-I medium that consisted of Knockout™ D-MEM (Invitrogen), supplemented with 10% KSR (Invitrogen), 0.2 mM L-Glutamine (Invitrogen), 0.1 mM MEM non-essential amino acids (Invitrogen), 30 μg/ml Gentamicin (Invitrogen), 1000 U/ml ESGRO™ (CHEMICON International, Inc.), 0.1 mM 2-mercaptoethanol (Sigma) and 150 ng/ml Transferrin (Invitrogen). The plates may then be put on a Stovall Belly Button™ shaker in an atmospheric oxygen incubator. The media may be changed on day 2 of EB formation with NeuroEB-I and on day 4 with NeuroEB-II (NeuroEB-I plus 1 μg/ml mNoggin (R&D Systems, 614 McKinley Place N.E. Minneapolis, Minn. 55413)
Neuronal Precursor Selection and Expansion: On day 5 of EB formation, EBs may be dissociated with 0.05% Trypsin EDTA, and 4×10^6 cells/100 mm dish may then be plated on Laminin coated tissue culture dishes in NeuroEB-II-G418 medium that consisted of a base medium of a 1:1 mixture of D-MEM/F12 supplemented with N2 supplements and NeuroBasal Medium supplemented with B27(I ASSUME THIS IS THE VITAMIN) supplement and 0.1 mM L-Glutamine (all from Invitrogen). The base medium may then be supplemented with 10 ng/ml bFGF (Invitrogen), 1 μg/ml mNoggin, 500 ng/ml SHH-N (IS THIS SONIC HEDGEHOG FROM ProSpecBio Rehovot Science Park, P.O. BOX 398, Rehovot 76103, Israel), 100 ng/ml FGF-8b (R&D Systems), 1 μg/ml Laminin and 200 μg/ml G418 (Invitrogen) for selection of neuronal precursors expressing Sox-1. The plates may then be put in an incubator containing 2% oxygen and maintained in these conditions. During the 6-day selection period, the NeuroEB-II ([…]) media should be changed daily. On day 6, the surviving neuronal precursor foci may then be dissociated with 0.05% Trypsin EDTA and the cells plated at a density of 1.5×10^6 cells/100 mm Laminin coated dish in Neuroll ([…])-G418 medium. The cells may then be dissociated every other day for expansion, and prepared for cryopreservation at passage 3 or 4. The cryopreservation medium typically contains 50% KSR, 10% dimethyl sulfoxide (DMSO) (Sigma) and 40% Neurol([…])-G418 medium. Neuronal precursors may be cryopreserved at a concentration of 4×10^6 cells/ml and 1 ml/cryovial in a controlled rate freezer overnight then transferred to an ultra-low freezer or liquid nitrogen for long-term storage. […]

Row | SMILES | pEC50
1 | CC(=O)NC1CCN(c2ccc(O[C@@H]3COC[C@H]3NS(=O)(=O)C(C)C)cc2)C1 (mixture of isomers) [Example 1, N-{1-[4-trans-({4-[(isopropylsulfonyl)amino]tetrahydrofuran-3-yl}oxy)phenyl]pyrrolidin-3-yl}acetamide] | 5.48
2 | CCOc1ccccc1-c1ccc(O[C@@H]2COC[C@H]2NS(=O)(=O)C(C)C)cc1 (racemic) [Example 8, trans-N-{4-[(2′-ethoxybiphenyl-4-yl)oxy]tetrahydrofuran-3-yl}propane-2-sulfonamide.] | 5.54
3 | CC(C)S(=O)(=O)N[C@H]1COC[C@H]1Oc1ccc(-c2ccc(C#N)s2)nc1 (racemic) [Example 23, cis-N-[4-{[6-(5-cyano-2-thienyl)pyridin-3-yl]oxy}tetra hydrofuran-3-yl]propane-2-sulfonamide] | 5.59
4 | CC(C)S(=O)(=O)N[C@H]1COC[C@H]1Oc1ccc(-c2ccc(N(C)C)nc2)cc1 (racemic) [Example 43, cis-N-[4-{4-[6-(dimethyl-amino)-pyridin-3-yl]phenoxy}-tetrahydrofuran-3-yl]propane-2-sulfonamide] | 5.35
5 | CC(C)S(=O)(=O)N[C@H]1COC[C@H]1Oc1ccc(-c2ccccc2C(F)(F)F)cc1 (racemic) [Example 44, cis-N-[4-{[2′-(trifluoro-methyl)-biphenyl-4-yl]oxy}-tetrahydrofuran-3-yl]propane-2-sulfonamide] | 5.57
6 | Cc1ccc(-c2ccc(O[C@@H]3COC[C@@H]3NS(=O)(=O)C(C)C)cc2)cc1 (racemic) [Example 45, cis-N-{4-[(4′-methylbiphenyl-4-yl)oxy]-tetrahydrofuran-3-yl}propane-2-sulfonamide] | 5.59
7 | CC(C)S(=O)(=O)N[C@H]1COC[C@H]1Oc1ccc(-c2cccc(C(F)(F)F)c2)cc1 (racemic) [Example 47, cis-N-[4-{[3′-(trifluoromethyl)biphenyl-4-yl]oxy}tetrahydrofuran-3-yl]propane-2-sulfonamide] | 5.42
8 | CC(C)S(=O)(=O)N[C@H]1COC[C@H]1Oc1ccc(-c2ccncc2)cc1 (racemic) [Example 48, cis-N-[4-(4-pyridin-4-ylphenoxy)tetrahydrofuran-3-yl]propane-2-sulfonamide] | 6.20
9 | CC(C)S(=O)(=O)N[C@H]1COC[C@H]1Oc1ccc(-c2cccc3ncccc23)cc1 (racemic) [Example 50, cis-N-[4-(4-quinolin-5-ylphenoxy)tetrahydrofuran-3-yl]propane-2-sulfonamide] | 6.34
10 | CC(C)S(=O)(=O)N[C@H]1COC[C@H]1Oc1ccc(-c2cccc3cnccc23)cc1 (racemic) [Example 52, cis-N-[4-(4-isoquinolin-5-ylphenoxy)tetrahydrofuran-3-yl]propane-2-sulfonamide] | 5.90
11 | CC(C)S(=O)(=O)N[C@@H]1COC[C@@H]1Oc1ccc(-c2ccc(C#N)cc2)cc1 (relative stereo) [Example 9, cis-N-{4-[(4′-cyanobiphenyl-4-yl)oxy]tetra hydrofuran-3-yl}propane-2-sulfonamide] | 5.21
12 | CC(C)S(=O)(=O)N[C@@H]1COC[C@@H]1Oc1ccc(-c2cccnc2)cc1 (relative stereo) [Example 10, cis-N-[4-(4-pyridin-3-ylphenoxy)tetrahydrofuran-3-yl]propane-2-sulfonamide] | 5.94
13 | CC(C)S(=O)(=O)N[C@@H]1COC[C@@H]1Oc1ccc(-c2cccs2)cc1 (relative stereo) [Example 11, cis-N-{4-[4-(2-thienyl)phenoxy]tetrahydrofuran-3-yl}propane-2-sulfonamide] | 6.16
14 | CC(C)S(=O)(=O)N[C@@H]1COC[C@@H]1Oc1ccc(-c2ccc(F)nc2)cc1 (relative stereo) [Example 12, cis-N-{4-[4-(6-fluoropyridin-3-yl)phenoxy]tetrahydrofuran-3-yl}propane-2-sulfonamide] | 5.96
15 | COc1ccc(-c2ccc(O[C@H]3COC[C@H]3NS(=O)(=O)C(C)C)cc2)cn1 (relative stereo) [Example 13, cis-N-{4-[4-(6-methoxypyridin-3-yl)phenoxy]tetrahydrofuran-3-yl}propane-2-sulfonamide] | 5.28
16 | CC(C)S(=O)(=O)N[C@@H]1COC[C@@H]1Oc1ccc(-c2ccoc2)cc1 (relative stereo) [Example 14, cis-N-{4-[4-(3-furyl)phenoxy]tetrahydrofuran-3-yl}propane-2-sulfonamide] | 5.63
17 | CC(C)S(=O)(=O)N[C@@H]1COC[C@@H]1Oc1ccc(-c2cccnc2F)cc1 (relative stereo) [Example 15, cis-N-{4-[4-(2-fluoropyridin-3-yl)phenoxy]tetrahydrofuran-3-yl}propane-2-sulfonamide] | 5.54
18 | CC(C)S(=O)(=O)N[C@@H]1COC[C@@H]1Oc1ccc(-c2ccsc2)cc1 (relative stereo) [Example 24, cis-N-{4-[4-(3-thienyl)phenoxy]tetrahydrofuran-3-yl}propane-2-sulfonamide] | 6.28
19 | CC(C)S(=O)(=O)N[C@H]1COC[C@H]1Oc1ccc(-c2ccc(C(=O)N(C)C)cc2)cc1 (relative stereo) [Example 46, cis-4′-({4-[(isopropyl-sulfonyl)-amino]tetrahydrofuran-3-yl}oxy)-N,N-dimethyl-biphenyl-4-carboxamide] | 5.17
20 | CC(C)S(=O)(=O)N[C@H]1COC[C@H]1Oc1ccc(-c2ccccc2C(N)=O)cc1 (relative stereo) [Example 49, cis-4′-({4-[(isopropylsulfonyl)amino]tetrahydrofuran-3-yl}oxy)biphenyl-2-carboxamide] | 5.85
21 | CC(C)S(=O)(=O)N[C@H]1COC[C@H]1Oc1ccc(-c2ccccc2S(=O)(=O)NC(C)(C)C)cc1 (relative stereo) [Example 51, cis-N-tert-butyl-4′-({4-[(isopropylsulfonyl)amino]tetrahydrofuran-3-yl}oxy)biphenyl-2-sulfonamide] | 5.68
22 | CC(C)S(=O)(=O)N[C@H]1COC[C@H]1Oc1ccc(-c2cccc(C(N)=O)c2)cc1 (relative stereo) [Example 53, cis-4′-({4-[(isopropylsulfonyl)amino]tetrahydrofuran-3-yl}oxy) biphenyl-3-carboxamide] | 5.95
23 | CC(C)S(=O)(=O)N[C@H]1COC[C@H]1Oc1ccc(-c2ccc(F)cc2C#N)cc1 (single isomer, unassigned) [Example 16] | > 8.00
24 | CC(C)S(=O)(=O)N[C@H]1COC[C@H]1Oc1ccc(-c2ccc(F)cc2)cc1 (single isomer, unassigned) [Example 17] | 6.39
25 | CC(C)S(=O)(=O)N[C@H]1COC[C@H]1Oc1ccc(-c2ccccc2)cc1 [Example 2, N-[(3S,4S)-4-(biphenyl-4-yloxy)tetrahydrofuran-3-yl]propane-2-sulfonamide] | 5.87
26 | CC(C)S(=O)(=O)N[C@H]1COC[C@H]1Oc1ccc(-c2ccccc2C#N)cc1 [Example 3, N-{(3S,4S)-4-[(2′-cyanobiphenyl-4-yl)oxy]tetrahydrofuran-3-yl}propane-2-sulfonamide] | 7.66
27 | CC(C)S(=O)(=O)N[C@H]1COC[C@H]1Oc1ccc(-c2ccc(C#N)s2)cc1 [Example 4, N-{(3S,4S)-4-[4-(5-cyano-2-thienyl)phenoxy]tetrahydrofuran-3-yl}propane-2-sulfonamide] | 5.75
